Assay results published in ChEMBL document CHEMBL2074448, “Transport of anthelmintic benzimidazole drugs by breast cancer resistance protein (BCRP/ABCG2)” (Drug Metab Dispos, 2005).

What was measured:
Format in all cases: functional, cell-based
Settings in all cases: dog, mdck-ii
[1] = target: T1, Broad substrate specificity ATP-binding cassette transporter ABCG2 (Mus musculus, UniProt Q7TMS5); assay: TP_TRANSPORTER: transepithelial transport of PhIP (basal to apical) in Bcrp1-expressing MDCKII cells
T1 sequence (Q7TMS5 whole entry): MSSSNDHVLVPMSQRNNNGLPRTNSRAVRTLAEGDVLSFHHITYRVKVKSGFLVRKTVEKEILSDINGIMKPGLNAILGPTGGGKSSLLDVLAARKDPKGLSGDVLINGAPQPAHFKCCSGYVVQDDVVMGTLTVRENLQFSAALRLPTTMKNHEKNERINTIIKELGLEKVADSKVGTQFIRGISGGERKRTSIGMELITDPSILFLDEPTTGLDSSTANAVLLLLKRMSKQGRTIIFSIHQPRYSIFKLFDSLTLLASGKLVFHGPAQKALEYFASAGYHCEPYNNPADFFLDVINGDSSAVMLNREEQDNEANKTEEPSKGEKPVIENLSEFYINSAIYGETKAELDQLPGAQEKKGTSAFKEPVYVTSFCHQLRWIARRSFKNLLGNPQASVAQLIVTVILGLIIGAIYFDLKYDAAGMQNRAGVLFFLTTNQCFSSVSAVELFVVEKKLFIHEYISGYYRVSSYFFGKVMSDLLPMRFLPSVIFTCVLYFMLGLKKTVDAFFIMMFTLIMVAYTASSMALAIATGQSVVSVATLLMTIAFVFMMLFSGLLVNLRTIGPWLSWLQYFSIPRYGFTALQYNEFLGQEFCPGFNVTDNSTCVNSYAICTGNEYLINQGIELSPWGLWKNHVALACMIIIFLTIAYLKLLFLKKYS

[2] = target: T2, Broad substrate specificity ATP-binding cassette transporter ABCG2 (Homo sapiens, UniProt Q9UNQ0); assay: TP_TRANSPORTER: transepithelial transport (basal to apical) in BCRP-expressing MDCKII cells
T2 sequence (Q9UNQ0 whole entry): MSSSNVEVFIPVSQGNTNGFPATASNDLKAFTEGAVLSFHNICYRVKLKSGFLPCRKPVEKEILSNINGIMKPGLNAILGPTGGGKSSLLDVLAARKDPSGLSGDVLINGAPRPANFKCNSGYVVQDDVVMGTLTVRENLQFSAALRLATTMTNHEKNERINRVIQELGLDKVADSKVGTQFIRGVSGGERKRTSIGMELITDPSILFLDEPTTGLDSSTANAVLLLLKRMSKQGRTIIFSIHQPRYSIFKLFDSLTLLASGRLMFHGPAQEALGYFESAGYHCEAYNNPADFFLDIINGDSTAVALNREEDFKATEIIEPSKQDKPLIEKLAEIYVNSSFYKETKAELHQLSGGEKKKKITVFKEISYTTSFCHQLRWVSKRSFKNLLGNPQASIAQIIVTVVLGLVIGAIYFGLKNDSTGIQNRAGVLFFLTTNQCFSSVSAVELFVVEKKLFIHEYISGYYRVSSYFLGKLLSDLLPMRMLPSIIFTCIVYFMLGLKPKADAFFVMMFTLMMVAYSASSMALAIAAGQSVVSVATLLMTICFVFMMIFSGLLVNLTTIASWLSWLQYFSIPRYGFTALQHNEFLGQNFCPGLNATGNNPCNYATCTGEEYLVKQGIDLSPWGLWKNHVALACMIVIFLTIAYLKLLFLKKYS

[3] = target: T1, Broad substrate specificity ATP-binding cassette transporter ABCG2; assay: TP_TRANSPORTER: transepithelial transport (basal to apical) in Bcrp1-expressing MDCKII cells
[4] = target: T2, Broad substrate specificity ATP-binding cassette transporter ABCG2; assay: TP_TRANSPORTER: transepithelial transport of PhIP (basal to apical) in BCRP-expressing MDCKII cells

In the case of `COc1ccc2c3c([nH]c2c1)[C@H](CC(C)C)N1C(=O)[C@H](CCC(=O)OC(C)(C)C)NC(=O)[C@@H]1C3`, the Activity [1] is reported as “inhibitor []”.
In the case of `CCC[S+]([O-])c1ccc2[nH]c(NC(=O)OC)nc2c1` (stereo unspecified) [ALBENDAZOLE OXIDE], the Activity [2] is reported as “substrate []” and the Activity [3] is reported as “substrate []”.
In the case of `COC(=O)Nc1nc2ccc([S+]([O-])c3ccccc3)cc2[nH]1` (stereo unspecified) [OXFENDAZOLE], the Activity [3] is reported as “substrate []”, the Activity [1] is reported as “inhibitor []” and the Activity [4] is reported as “inhibitor []”.
